# Where two headings read alike, the source gives them in different places.
# Key:
# [1] = target: T1, human recombinant adrenergic α2A receptor (Homo sapiens, UniProt P08913); experiment: Adrenergic α2A radioligand binding ([3H]MK-912); settings: compound at 1 μM
# T1 construct: expressed in transfected cells; host or cells: insect Sf9 cells
# T1 sequence (P08913 1-465): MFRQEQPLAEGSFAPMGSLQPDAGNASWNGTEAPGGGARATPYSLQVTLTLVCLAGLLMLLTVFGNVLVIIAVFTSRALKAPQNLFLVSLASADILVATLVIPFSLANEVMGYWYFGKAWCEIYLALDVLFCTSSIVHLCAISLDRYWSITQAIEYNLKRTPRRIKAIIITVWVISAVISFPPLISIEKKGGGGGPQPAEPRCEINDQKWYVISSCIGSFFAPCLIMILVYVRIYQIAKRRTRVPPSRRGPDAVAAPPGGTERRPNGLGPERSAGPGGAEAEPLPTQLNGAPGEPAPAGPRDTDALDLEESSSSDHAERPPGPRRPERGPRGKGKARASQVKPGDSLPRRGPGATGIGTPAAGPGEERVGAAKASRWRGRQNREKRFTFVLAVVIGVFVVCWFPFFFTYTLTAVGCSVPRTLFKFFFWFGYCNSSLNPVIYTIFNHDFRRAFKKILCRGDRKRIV
# Procedure, shortened: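 Sf9-expressed human receptor in 50 mM Tris-HCl pH 7.4, 12.5 mM MgCl2, 2 mM EDTA; compounds at 1 μM or lower (1% DMSO) incubated with 1 nM [3H]MK-912 for 60 min at 25° C. Non-specific binding defined with 10 μM WB-4101; filtered bound radioactivity counted, reported as percent inhibition of specific binding.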
# [2] = target: T2, human recombinant serotonin (5-Hydroxytryptamine) 5-HT2C receptor (Homo sapiens, UniProt P28335); experiment: Serotonin 5-HT2C radioligand binding ([3H]Mesulergine); settings: compound at 1 μM; for Inhibition of ligand binding, Serotonin 5-HT2C (percent inhibition of specific binding): 1 µM; for inhibition at 1 µM: read-out: Inhibition of ligand binding, Serotonin 5-HT2C (percent inhibition of specific binding)
# T2 construct: expressed in transfected cells; host or cells: Chinese hamster ovary (CHO-K1) cells
# T2 sequence (P28335 33-458): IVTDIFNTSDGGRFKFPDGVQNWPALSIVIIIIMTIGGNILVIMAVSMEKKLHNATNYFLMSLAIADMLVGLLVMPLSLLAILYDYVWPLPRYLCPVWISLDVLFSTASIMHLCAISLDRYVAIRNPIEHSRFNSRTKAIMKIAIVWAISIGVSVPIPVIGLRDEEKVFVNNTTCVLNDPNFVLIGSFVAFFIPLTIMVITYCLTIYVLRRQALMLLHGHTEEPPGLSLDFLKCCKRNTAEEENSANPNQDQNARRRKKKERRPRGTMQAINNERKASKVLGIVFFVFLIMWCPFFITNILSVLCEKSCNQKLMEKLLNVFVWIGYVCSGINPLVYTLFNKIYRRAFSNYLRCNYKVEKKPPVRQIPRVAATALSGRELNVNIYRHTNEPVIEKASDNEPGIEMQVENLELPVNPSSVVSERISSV
# Procedure, shortened: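 Compounds tested at 1 μM or lower (1% DMSO vehicle) for displacement of 1 nM [3H]Mesulergine over 60 min at 25° C. Specific binding determined by filtration counting, with 1 μM Mianserin defining non-specific binding; values are percent inhibition.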
# histamine receptor H1 = histamine receptor H1 (Homo sapiens, UniProt P35367); experiment: Histamine H1 radioligand binding ([3H]Pyrilamine); settings: for inhibition at 1 µM: read-out: Histamine Binding (1 μM) H1, percent inhibition of specific binding, 1 μM
# Procedure, shortened: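 Values are percent inhibition of specific [3H]pyrilamine (1.2 nM) binding with compounds at ≤1 μM (1% DMSO vehicle); 180 min incubation at 25 °C, pH 7.4 Tris buffer, on CHO-expressed human H1 receptor; 1 μM pyrilamine defined nonspecific binding, bound ligand counted after filtration.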
# [3] = percent inhibition of specific binding, read-out: Inhibition of ligand binding, Adrenergic α2A
# [4] = read-out: Inhibition of ligand binding, Adrenergic α2A (percent inhibition of specific binding)
# histamine receptor H1, sequence (P35367 whole entry): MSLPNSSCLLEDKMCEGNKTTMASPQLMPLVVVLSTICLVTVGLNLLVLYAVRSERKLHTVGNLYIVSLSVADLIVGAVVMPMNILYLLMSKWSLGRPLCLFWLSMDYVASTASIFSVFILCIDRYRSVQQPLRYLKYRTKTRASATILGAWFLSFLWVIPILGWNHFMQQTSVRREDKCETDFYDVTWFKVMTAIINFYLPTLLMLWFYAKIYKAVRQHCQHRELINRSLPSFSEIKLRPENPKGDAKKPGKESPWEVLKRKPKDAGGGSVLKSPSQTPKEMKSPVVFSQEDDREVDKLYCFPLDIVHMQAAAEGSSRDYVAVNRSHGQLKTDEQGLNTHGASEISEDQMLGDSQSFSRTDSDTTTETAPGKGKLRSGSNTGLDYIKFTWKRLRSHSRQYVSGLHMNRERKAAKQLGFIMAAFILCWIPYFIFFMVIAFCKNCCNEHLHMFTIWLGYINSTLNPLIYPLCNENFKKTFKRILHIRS
structure (smiles),measurement,setting,value
"CN1CCc2c(c3cc(Cl)ccc3n2C/C(=C\CCO)c2ccc(F)cc2)C1 [Compound No. 348, (Z)-5-(8-chloro-2-methyl-3,4-dihydro-1H-pyrido[4,3-b]indol-5(2H)-yl)-4-(4-fluorophenyl)pent-3-en-1-ol]",inhibition at 1 µM,[1]; [3],92%
same,"Inhibition of ligand binding, Serotonin 5-HT2C (percent inhibition of specific binding)",[2],95%
same,inhibition at 1 µM,[2],91%
same,"Histamine Binding (1 μM) H1, percent inhibition of specific binding",histamine receptor H1,38%
same,inhibition at 1 µM,histamine receptor H1,32%
"CN1CCc2c(c3cc(Cl)ccc3n2C/C(=C/CCO)c2ccc(F)cc2)C1 [Compound No. 349, (E)-5-(8-chloro-2-methyl-3,4-dihydro-1H-pyrido[4,3-b]indol-5(2H)-yl)-4-(4-fluorophenyl)pent-3-en-1-ol]",inhibition at 1 µM,[1]; [3],97%
same,"Inhibition of ligand binding, Serotonin 5-HT2C (percent inhibition of specific binding)",[2],98%
same,inhibition at 1 µM,[2],96%
same,"Histamine Binding (1 μM) H1, percent inhibition of specific binding",histamine receptor H1,65%
same,inhibition at 1 µM,histamine receptor H1,53%
"CCOC(=O)/C=C(/Cn1c2c(c3cc(C)ccc31)CN(C)CC2)c1ccc(F)cc1 [Compound No. 350, (E)-ethyl 4-(2,8-dimethyl-3,4-dihydro-1H-pyrido[4,3-b]indol-5(2H)-yl)-3-(4-fluorophenyl)but-2-enoate]",inhibition at 1 µM,[1]; [4],95%
same,inhibition at 1 µM,[2],87%
same,"Histamine Binding (1 μM) H1, percent inhibition of specific binding",histamine receptor H1,37%
same,inhibition at 1 µM,histamine receptor H1,27%
"CCC/C=C(/Cn1c2c(c3cc(Cl)ccc31)CN(C)CC2)c1ccc(F)cc1 [Compound No. 351, (E)-8-chloro-5-(2-(4-fluorophenyl)hex-2-enyl)-2-methyl-2,3,4,5-tetrahydro-1H-pyrido[4,3-b]indole]",inhibition at 1 µM,[1]; [4],84%
same,inhibition at 1 µM,[2],101%
same,"Histamine Binding (1 μM) H1, percent inhibition of specific binding",histamine receptor H1,80%
same,inhibition at 1 µM,histamine receptor H1,78%
"Cc1ccc2c(c1)c1c(n2C/C(=C/C(=O)O)c2ccc(F)cc2)CCN(C)C1 [Compound No. 352, (E)-4-(2,8-dimethyl-3,4-dihydro-1H-pyrido[4,3-b]indol-5(2H)-yl)-3-(4-fluorophenyl)but-2-enoic acid]",inhibition at 1 µM,[1]; [4],34%
same,inhibition at 1 µM,[2],93%
same,inhibition at 1 µM,histamine receptor H1,4%
"CN1CCc2c(c3cc(Cl)ccc3n2C#Cc2ccc(F)cc2)C1 [Compound No. 475, 8-chloro-5-((4-fluorophenyl)ethynyl)-2-methyl-2,3,4,5-tetrahydro-1H-pyrido[4,3-b]indole]",inhibition at 1 µM,[1]; [4],93%
same,inhibition at 1 µM,[2],96%
same,inhibition at 1 µM,histamine receptor H1,34%
"Cc1ccc2c(c1)c1c(n2C#Cc2ccc(C)nc2)CCN(C)C1 [Compound No. 476, 2,8-dimethyl-5-((6-methylpyridin-3-yl)ethynyl)-2,3,4,5-tetrahydro-1H-pyrido[4,3-b]indole]",inhibition at 1 µM,[1]; [4],96%
same,inhibition at 1 µM,[2],95%
same,inhibition at 1 µM,histamine receptor H1,27%
"COc1ccc(C#Cn2c3c(c4cc(Cl)ccc42)CN(C)CC3)cc1F [Compound No. 477, 8-chloro-5-((3-fluoro-4-methoxyphenyl)ethynyl)-2-methyl-2,3,4,5-tetrahydro-1H-pyrido[4,3-b]indole]",inhibition at 1 µM,[1]; [4],97%
same,inhibition at 1 µM,[2],99%
same,inhibition at 1 µM,histamine receptor H1,17%
"Cc1ccc2c(c1)c1c(n2C#Cc2ccc(F)cc2)CCN(C)C1 [Compound No. 478, 5-((4-fluorophenyl)ethynyl)-2,8-dimethyl-2,3,4,5-tetrahydro-1H-pyrido[4,3-b]indole]",inhibition at 1 µM,[1]; [4],96%
same,inhibition at 1 µM,[2],110%
same,inhibition at 1 µM,histamine receptor H1,28%
"COC(=O)c1ccc2c(c1)c1c(n2C#Cc2ccc(F)cc2)CCN(C)C1 [Compound No. 479, methyl 5-((4-fluorophenyl)ethynyl)-2-methyl-2,3,4,5-tetrahydro-1H-pyrido[4,3-b]indole-8-carboxylate]",inhibition at 1 µM,[1]; [4],83%
same,inhibition at 1 µM,[2],69%
same,inhibition at 1 µM,histamine receptor H1,11%
"CN1CCc2c(c3cc(Cl)ccc3n2C#Cc2ccc(Cl)cc2)C1 [Compound No. 480, 8-chloro-5-((4-chlorophenyl)ethynyl)-2-methyl-2,3,4,5-tetrahydro-1H-pyrido[4,3-b]indole]",inhibition at 1 µM,[1]; [4],94%
same,inhibition at 1 µM,[2],102%
same,inhibition at 1 µM,histamine receptor H1,40%
"Cc1ccc2c(c1)c1c(n2C#Cc2ccc(Cl)cc2)CCN(C)C1 [Compound No. 481, 5-((4-chlorophenyl)ethynyl)-2,8-dimethyl-2,3,4,5-tetrahydro-1H-pyrido[4,3-b]indole]",inhibition at 1 µM,[1]; [4],99%
same,inhibition at 1 µM,[2],104%
same,inhibition at 1 µM,histamine receptor H1,12%
"CN1CCc2c(c3cc(C(=O)O)ccc3n2C#Cc2ccc(F)cc2)C1 [Compound No. 482, 5-((4-fluorophenyl)ethynyl)-2-methyl-2,3,4,5-tetrahydro-1H-pyrido[4,3-b]indole-8-carboxylic acid]",inhibition at 1 µM,[1]; [4],8%
same,inhibition at 1 µM,[2],-12%
same,inhibition at 1 µM,histamine receptor H1,13%
"CNC(=O)c1ccc2c(c1)c1c(n2C#Cc2ccc(F)cc2)CCN(C)C1 [Compound No. 483, 5-((4-fluorophenyl)ethynyl)-N,2-dimethyl-2,3,4,5-tetrahydro-1H-pyrido[4,3-b]indole-8-carboxamide]",inhibition at 1 µM,[1]; [4],77%
same,inhibition at 1 µM,[2],35%
same,inhibition at 1 µM,histamine receptor H1,-1%
"Cc1ccc2c(c1)c1c(n2CC#Cc2ccccn2)CCN(C)C1 [Compound No. 500, 2,3,4,5-tetrahydro-2,8-dimethyl-5-(3-(pyridin-2-yl)prop-2-ynyl)-1H-pyrido[4,3-b]indole]",inhibition at 1 µM,[1]; [4],72%
same,inhibition at 1 µM,[2],77%
same,inhibition at 1 µM,histamine receptor H1,70%
"Cc1ccc2c(c1)c1c(n2/C=C/c2ccc(C)nc2)CCN(C)C1 [compound 95, 2,3,4,5-tetrahydro-2,8-dimethyl-5-((E)-2-(6-methylpyridin-3-yl)vinyl)-1H-pyrido[4,3-b]indole]",inhibition at 1 µM,[1]; [3],95%
same,inhibition at 1 µM,[2],91%
same,inhibition at 1 µM,histamine receptor H1,85%
"C/C(=C\n1c2c(c3cc(Cl)ccc31)CN(C)CC2)c1ccccc1 [compound 106, (E)-8-chloro-2,3,4,5-tetrahydro-2-methyl-5-(2-phenylprop-1-enyl)-1H-pyrido[4,3-b]indole]",inhibition at 1 µM,[1]; [3],93%
same,inhibition at 1 µM,[2],98%
same,inhibition at 1 µM,histamine receptor H1,84%
